This is an account of results in US6080772A, “Thiazole compounds and methods of modulating signal transduction” (Sugen, Inc., priority 1997, dated 2000).

Some results are limits rather than exact numbers.

The first test has as its system primary adipocytes. Briefly: Primary adipocyte glucose uptake assay (14C glucose). Particulars: test compound 50 mM without insulin, compared to samples containing only insulin (final concentration=100 μm).
Regarding “2-[(5-nitrothiazol-2-yl)mercapto]-3-cyano-5-acetoxy-6-dimethoxymethyl-pyridine [Compound 97]”, the “response in the primary adipocyte glucose uptake assay compared with the insulin control” value (“response … compared with the insulin control” below) is “did not give a response greater than or equal to the insulin control”.
Consider `O=[N+]([O-])c1cnc(Sc2ncc[nH]2)s1` [Compound 87, 2-[(5-Nitrothiazol-2-yl)mercapto]imidazole], for which the “response … compared with the insulin control” value was “did not give a response greater than or equal to the insulin control”.
Turning to `O=[N+]([O-])c1cnc(Sc2nnnn2-c2cccc(O)c2)s1` [Compound 88, 1-(3-Hydroxyphenyl)-5-[(5-nitrothiazol-2-yl)mercapto]tetrazole], the “response … compared with the insulin control” value is recorded as “did not give a response greater than or equal to the insulin control”.
Take `CCCCCC(=O)Nc1ccc(-n2nnnc2Sc2ncc([N+](=O)[O-])s2)cc1` [Compound 89, 1-[4-(n-Hexanoylamino)phenyl]-5-[(5-nitrothiazol-2-yl)mercapto]tetrazole]: the “response … compared with the insulin control” value is recorded as “did not give a response greater than or equal to the insulin control”.
On the same count and under the same terms, with `O=[N+]([O-])c1cnc(Sc2nc3cc4c(cc3[nH]2)OCCO4)s1` [Compound 90, 7-[(5-Nitrothiazol-2-yl)mercapto]-benzimidazo[5,6-b]1,4-dioxane] the entry was “did not give a response greater than or equal to the insulin control”; with `O=[N+]([O-])c1cnc(Sc2nnnn2-c2ccccc2)s1` [Compound 91, 5-[(5-Nitrothiazol-2-yl)mercapto]-1-phenyltetrazole], “did not give a response greater than or equal to the insulin control”; with `C#CCSc1nnc(Sc2ncc([N+](=O)[O-])s2)s1` [Compound 92, 2-[(5-Nitrothiazol-2-yl)mercapto]-5-propargylmercapto-1,3,4-thiadiazole], “did not give a response greater than or equal to the insulin control”.
On to `CC(C)n1c(Sc2ncc([N+](=O)[O-])s2)nc2cc(Cl)ccc21` [Compound 96(a), 5-Chloro-1-isopropyl-2-[(5-nitrothiazol-2-l)mercapto]benzimidazole], for which the “response … compared with the insulin control” value is given as “did not give a response greater than or equal to the insulin control”.
With `Cc1ccsc1/C=C/c1ccnc(Sc2ncc([N+](=O)[O-])s2)n1` [Compound 98], the “response … compared with the insulin control” value is given as “did not give a response greater than or equal to the insulin control”.

The next test has as its system insulin receptor (IR). Briefly: Phosphotyrosine enzyme linked immunosorbent assay: pTyr on insulin receptor in NIH3T3 cells over-expressing human IR (H25 cells). To be noted: Table III; 100, 50 and 25 μM.
With `O=[N+]([O-])c1cnc(Sc2nnc(NC3CCCCC3)s2)s1` [Compound 75], the “increase in PTYR” value turned out to be 47%.

The test is the same for the next values; noted with them: kinetic experiments, range of concentrations, period of 90 minutes.
Regarding “2-[(5-nitrothiazol-2-yl)mercapto]-3-cyano-5-acetoxy-6-dimethoxymethyl-pyridine [Compound 97]”, the “level of pTyr on insulin receptor over time (FIG. 1)” value is given as “progressively raised the level of pTyr on insulin receptor”.

Staying with this test, now noted: read-out: ACTIVITY EC50.
One may read the EC50 as the midpoint of the concentration-response curve. As for “2-[(5-nitrothiazol-2-yl)mercapto]-3-cyano-5-acetoxy-6-dimethoxymethyl-pyridine [Compound 97]”, the EC50 was determined as 34 µM.
`O=[N+]([O-])c1ccc(-c2nnc(Sc3ncc([N+](=O)[O-])s3)[nH]2)o1` [Compound 78, 2-(2-Nitrofuran-5-yl)-5-[(5-nitrothiazol-2-yl)mercapto]-1,2,4-triazole]: the concentration giving a half-maximal response (EC50) was determined as 36 µM.

The same test, now with this note: read-out: ACTIVITY EC50; Table III; […].
On to `CCOC(=O)c1nc(Sc2ncc([N+](=O)[O-])s2)n(C2CCCCC2)c1C(=O)OCC` [Compound 47, 1-Cyclohexyl-4,5-di(ethoxycarbonyl)-2-[(5-nitrothiazol-2-yl)mercapto]imidazole], for which the EC50 worked out at 15.7 µM.
On to `CCOC(=O)c1nc(Sc2ncc([N+](=O)[O-])s2)[nH]c1C(=O)OCC` [Compound 48, 4,5-Di(ethoxycarbonyl)-2-[(5-nitrothiazol-2-yl)mercapto]imidazole], for which the EC50 is over 100 µM.
Turning to `CCCn1c(Sc2ncc([N+](=O)[O-])s2)nc2c(O)nnc(O)c21` [Compound 49], the EC50 was determined as 4 µM.
`Cc1ccc2nc(Sc3ncc([N+](=O)[O-])s3)[nH]c2c1` [Compound 50, 5-Methyl-2-[(5-nitrothiazol-2-yl)mercapto]benzimidazole]: the EC50 is over 100 µM.
Take `O=[N+]([O-])c1cnc(Sc2nc3ccc(S(=O)(=O)O)cc3[nH]2)s1` [Compound 51, 2-[(5-nitrothiazol-2-yl)mercapto]-5-sulfobenzimidazole]: the EC50 is 10.3 µM.
Regarding `CC(C)n1c(Sc2ncc([N+](=O)[O-])s2)nc2cc(Cl)ccc21` [Compound 52, 5-Chloro-1-isopropyl-2-[(5-nitrothiazol-2-yl)mercapto]benzimidazole], the EC50 was over 50 µM.
Still for that read-out and setting: as for `Cn1c(Sc2ncc([N+](=O)[O-])s2)nc2cc(C(F)(F)F)cnc21` [Compound 53], the figure is over 25 µM; as for `O=[N+]([O-])c1cnc(Sc2nnnn2-c2ccc(F)cc2)s1` [Compound 54, 1-(4-Fuorophenyl)-5-[(5-nitrothiazol-2-yl)mercapto]tetrazole], 42 µM.
In the case of `O=[N+]([O-])c1cnc(Sc2nnnn2-c2ccc(O)cc2)s1` [Compound 55, 1-(4-Hydroxyphenyl)-5-[(5-nitrothiazol-2-yl)mercapto]tetrazole], the EC50 worked out at 41 µM.
Take `Cn1nnnc1Sc1ncc([N+](=O)[O-])s1` [Compound 56, 1-Methyl-5-[(5-nitrothiazol-2-yl)mercapto]tetrazole]: the EC50 was determined as 27 µM.
On the same count and under the same terms, with `CCn1nnnc1Sc1ncc([N+](=O)[O-])s1` [Compound 57, 1-Ethyl-5-[(5-nitrothiazol-2-yl)mercapto]tetrazole] the figure was 81 µM; with `O=C(O)Cn1nnnc1Sc1ncc([N+](=O)[O-])s1` [Compound 58, 1-Carboxymethyl-5-[(5-nitrothiazol-2-yl)mercapto]tetrazole], 40 µM.
As to `Nc1nnc(Sc2ncc([N+](=O)[O-])s2)s1` [Compound 59, 2-Amino-5-[(5-nitrothiazol-2-yl)mercapto]-1,3,4-thiadiazole], the half-maximal effective concentration (EC50) is over 100 µM.
As for `Cc1nnc(Sc2ncc([N+](=O)[O-])s2)s1` [Compound 60, 2-Methyl-5-[(5-nitrothiazol-2-yl)mercapto]-1,3,4-thiadiazole], the concentration giving a half-maximal response (EC50) is over 100 µM.
Turning to `CSc1nnc(Sc2ncc([N+](=O)[O-])s2)s1` [Compound 61, 2-Methylmercapto-5-[(5-nitrothiazol-2-yl)mercapto]-1,3,4-thiadiazole], the EC50 turned out to be 32 µM.
`O=[N+]([O-])c1cnc(Sc2nnc(SCC3CC3)s2)s1` [Compound 62, 2-Cyclopropylmethylmercapto-5-[(5-nitrothiazol-2-yl)mercapto]-1,3,4-thiadiazole]: the concentration for a half-maximal effect (EC50) is over 100 µM.
In the case of `O=[N+]([O-])c1cnc(Sc2nnc(SCc3cccc(C(F)(F)F)c3)s2)s1` [Compound 63, 2-[(5-Nitrothiazol-2-yl)mercapto]-5-[3-(trifluoromethyl)benzylmercapto]-1,3,4-thiadiazole], the half-maximal effective concentration (EC50) stood at 75 µM.
`O=C(Sc1nnc(Sc2ncc([N+](=O)[O-])s2)s1)c1ccccc1` [Compound 65, 2-Benzoylmercapto-5-[(5-nitrothiazol-2-yl)mercapto]-1,3,4-thiadiazole]: the EC50 is over 25 µM.
For `O=[N+]([O-])c1cnc(Sc2nccc(-c3ccc(-n4cnc(Cl)c4Cl)cc3)n2)s1` [Compound 67, 4-[4-(4,5-Dichloroimidazol-1-yl)phenyl]-2-[(5-nitrothiazol-2-yl)mercapto]pyrimidine], the concentration giving a half-maximal response (EC50) is 3 µM.
Regarding `O=C1CCCc2nc(Sc3ncc([N+](=O)[O-])s3)ncc21` [Compound 68, 2-[(5-Nitrothiazol-2-yl)mercapto]cyclohexylpyrimid-5-one], the EC50 was over 100 µM.
As for `Cc1ccc(Nc2nnc(Sc3ncc([N+](=O)[O-])s3)s2)cc1` [Compound 69, 2-(4-Methylphenylamino)-5-[(5-nitrothiazol-2-yl)mercapto]-1,3,4-thiadiazole], the EC50 is over 100 µM.
The same measure, in the same setting: as for `Cc1cccc(C)c1NC1=CN=C(Sc2ncc([N+](=O)[O-])s2)SN1` [Compound 70, 3-(2,6-dimethylphenylamino)-6-[(5-nitrothiazol-2-yl)mercapto]-1,2,5-thiadiazine], the figure is over 100 µM; as for `Cc1ccc(Nc2nnc(Sc3ncc([N+](=O)[O-])s3)s2)c(C)c1` [Compound 71, 2-(2,4-Dimethylphenylamino)-5-[(5-nitrothiazol-2-yl)mercapto]-1,3,4-thiadiazole], 24 µM.
On to `Cc1cc(C)c(Nc2nnc(Sc3ncc([N+](=O)[O-])s3)s2)c(C)c1` [Compound 72, 2-[(5-Nitrothiazol-2-yl)mercapto]-5-(2,4,6-trimethylphenylamino)-1,3,4-thiadiazole], for which the EC50 was 20 µM.
As to `O=[N+]([O-])c1cnc(Sc2nnc(Nc3ccccc3)s2)s1` [Compound 73, 2-[(5-Nitrothiazol-2-yl)mercapto]-5-phenylamino-1,3,4-thiadiazole], the EC50 is 10 µM.
Turning to `Cc1cc(C)c(Nc2nnc(Sc3ncc([N+](=O)[O-])s3)s2)cc1C` [Compound 74, 2-[(5-Nitrothiazol-2-yl)mercapto]-5(2,4,5-trimethylphenylamino)-1,3,4-thiadiazole], the concentration giving a half-maximal response (EC50) is over 100 µM.
Turning to `O=[N+]([O-])c1cnc(Sc2nnc(NC3CCCCC3)s2)s1` [Compound 75], the 50% effective concentration (EC50) is over 100 µM.
On the same count and under the same terms, as for `COc1ccccc1Nc1nnc(Sc2ncc([N+](=O)[O-])s2)s1` [Compound 76, 2-(2-Methoxyphenylamino)-5-[(5-nitrothiazol-2-yl)mercapto]-1,3,4-thiadiazol], the figure is 63.8 µM.
Take `Cc1ccc(Cl)cc1Nc1nnc(Sc2ncc([N+](=O)[O-])s2)s1` [Compound 77, 2-(5-Chloro-2-methylphenylamino)-5-[(5-nitrothiazol-2-yl)mercapto]-1,3,4-thiadiazole]: the EC50 came out at 5 µM.
For the molecule `O=[N+]([O-])c1cnc(Sc2nnnn2Cc2ccccc2)s1` [Compound 80, 1-Benzyl-5-[(5-nitrothiazol-2-yl)mercapto]tetrazole], the concentration for a half-maximal effect (EC50) came out at 7.8 µM.
Regarding `O=[N+]([O-])c1cnc(Sc2nnc(Nc3ccccc3Cl)s2)s1` [Compound 81, 2-(2-Chlorophenylamino)-5-[(5-nitrothiazol-2-yl)mercapto]-1,3,4-thiadiazole], the concentration giving a half-maximal response (EC50) amounted to 34 µM.
